Measured values as given in US12338263B2, “Antibacterial aminoglycoside derivatives” (priority 2019, dated 2025).
In brackets after ≈: the same amount, converted by molar mass. Like-named read-outs stand apart in the source and are kept apart here.

Experiments:
HK-2 cells = assay: Toxicity test on HK-2 cells (Alma Blue); type: cell-based; conditions: for Maximum inhibition rate: 43 hours incubation plus 3 hours Alma Blue
Protocol: (§1) On the day of the experiment, when the HK-2 cells in the culture flask reached 80%-90% confluent, the culture medium was discarded, the cells were washed twice with Dulbecco's phosphate buffered saline (DPBS) and digested for 1 to 2 minutes with 3 mL trypsin (T150 cell culture flask), and immediately 9 ml complete medium (RPMI1640+10% FBS) were added to terminate the digestion. After termination, single cells suspension were formed by pipetting gently, which were centrifuged at 1000 […] for 5 minutes. The supernatant was discarded, and fresh complete medium were added, and the cells were pipetted evenly. The actual cell density was measured according to the cell counter and the cell suspension was adjusted to 2.5×10^5 cells/mL. 80 μL of cell suspension was drawn by a row pipettor and added into a 96-well black bottom plate (2×10^4 cell/well), and then incubated in a carbon dioxide incubator for 4.5 hours, which was defined as a cell plate.
(§2) • a. The compound mother liquor was prepared according to the following table, with complete medium as the solvent;
(§3) • b. 50 microliters of complete medium was added into columns 3-11 in the 96-v well plate; • c. 75 microliters of test compound (50 mg/mL) and positive control were added to the second column of the 96-v well plate; • d. 25 microliters of compound was drawn from the second column and added into the third column, blown and sucked a few times by a row pipettor, then 25 microliters of liquid was drawn from the third column and added to the fourth column, and subsequently subjected to a 3-fold series dilution until the 10th column. From column 2 to column 11, the compound concentration was 50, 16.67, 5.56, 1.85, 0.62, 0.21, 0.07, 0.02, 0.008, 0 mg/mL; • e. 20 μL compound solutions of various concentrations prepared were transferred by a row pipettor to the corresponding wells of the cell plate, which was defined as a testing plate. Culture of the Testing Plate:
(§4) All the plates were incubated in an incubator at 37° C., 5% CO2 for 43 hours.
(§5) After incubation, 10 microliters of Alma Blue was added to the testing plate. The testing plate was immediately incubated in an incubator at 37° C., 5% CO2 for 3 hours. Then the fluorescence value of each well of the testing plate was read by a microplate reader (wavelength Ex 540 nm/Em 585 nm). Then prism software was used to simulate the curve to calculate CC50 value.

[1] = Toxicity test on HK-2 cells (Alma Blue); type: cell-based; conditions: human
Protocol: as §1, §2, §3, §4, §5

[2] = tested on: auditory function in guinea pigs; assay: Auditory safety: compound action potential (CAP) in guinea pigs; type: in vivo
Protocol: (§6) Healthy adult guinea pigs (150-250 g) were employed as the research objects, and were randomly divided into saline control group, gentamicin group, compound Plazomicin group and Compound 1 group, with 8 animals in each group. Subcutaneous administration is used, and the following assays were carried out during and after the administration for 14 consecutive days: • 1. To analyze the effects of different drugs on the auditory function of guinea pigs, the compound action potential (CAP) of animals was recorded on the 14th day (29th day, i.e., 4 weeks) after administration. The results obtained were analyzed and the changes of the threshold shift, amplitude, latency and other indicators among different treatment groups were compared. • 2. After the different groups of animals were processed and the auditory function data thereof were collected, the cochlea of the animals was taken out for fixation and staining. Surface preparation of basilar membrane of the cochlea on one side was performed to count the loss of hair cells so as to make a cochlea map, and the cochlea on the other side was decalcified and frozen sectioned. The density of spiral ganglion neurons was counted and compared among groups. Research Results: 1. Administration Method and Treatment
(§7) Gentamicin from Dalian Meilun Biotechnology Co., Ltd., and Plazomicin and Compound 1 from WuXi AppTec (WuHan) Co., Ltd. are used, the solution of which were prepared just before use each time by using saline for dissolution to the concentration of 50 mg/mL, and the injection dose was 100 mg/kg body weight. Method: subcutaneous injection, and confirmation of no liquid leakage after each injection.
The compound action potential (CAP) was tested and recorded when clicks and different frequencies of pure tones (1 KHz-32 kHz) were applied to each group of animals, and variations in amplitude and latency were mainly compared when clicks and medium and high frequency pure tones (16, 32 kHz) were applied. The magnitude of amplitude reflects the responsiveness of hair cells and auditory nerves. The larger the amplitude and the greater the slope of the I/O curve were, the better the responsiveness and the better the function were. In addition, the cochlea from apical turn to basal turn was responsive to sounds from low-frequency to high-frequency respectively, which is the frequency correspondence of the cochlear basilar membrane. The functional changes to different frequencies correspond to the different structural and functional changes of the cochlea fromapical turn to basal turn. The length of latency was also related to the function of the hair cells and auditory nerve response. Generally speaking, increasing of the threshold value when the cochlea was injured would inevitably lead to the extension of latency. […] In other words, the extension of latency reflected the decrease of response function. The previous ototoxicity of aminoglycoside antibiotics was mainly concentrated in the high-frequency area. In this study, the gentamicin group was consistent with previous results, as summarized below.

cochlear hair cells = assay: Auditory safety: hair cell staining and counting on the basilar membrane of the cochlea; type: in vivo, guinea pigs
Protocol: as §6, §7
In order to compare the effects of different drugs on hair cells, hair cell staining and counting on the whole basilar membrane of the cochlea are performed. […] The Plazomicin group had 11.2-28.1% loss of outer hair cells in the high frequency (70-100% from the apical turn) and 16.7-24.2% loss of the outer hair cells at the beginning of the apical turn (10-20%). However, in the Compound 1 group, the loss of outer hair cells only occurred in the low-frequency region (from the top turn −40%), in which the loss rate of outer hair cells was about 2.5-11%, and the outer hair cells were relatively intact in the high frequency area (see FIG. 6 B).

spiral ganglion neurons = assay: Auditory safety: density of spiral ganglion neurons; type: in vivo, guinea pigs
Protocol: as §6, §7
The cochlea of the guinea pig was defined as Turn 1, Turn 2, Turn 3, and Turn 4 from the basal to the apical turn. The spiral ganglion neurons (SGNs) were stained with TuJ on frozen sections, and the density thereof in a specific area were counted and compared between groups. […] Through the two-way ANOVA, there was a significant difference between the groups, F(3, 74)=35.43, p<0.0001 (see FIG. 7).

[3] = tested on: Klebsiella pneumoniae ATCC-BAA-1705; assay: Drug efficacy in mice (mouse pneumonia model); type: in vivo; conditions: CD-1 mice, 10 mpk and 30 mpk subcutaneously 2 h and 10 h after infection, read at 24 h; FIG. 2
Protocol: 21 CD-1 mice were divided into 7 cages, 3 mice per cage, and were injected intraperitoneally with the immunosuppressant cyclophosphamide (150 mpk) on the 4th day.
On the first day, 7 cages of mice were injected intraperitoneally again with the immunosuppressant cyclophosphamide (100 mpk). The strain Kpn ATCC-BAA-1705 (Klebsiella pneumoniae ATCC-BAA-1705) was recovered on a MHA plate. The recovered colonies were picked and dissolved in saline to prepare Kpn ATCC-BAA-1705 bacterial solution with a concentration of 4.00E+08 CFU/mL for later use in mouse lung infection. The amount of bacterial solution infected in the lung of experimental mice was 50 μL/mouse, that is, the inoculation amount was 2.00E+07 CFU/mouse. At 2 h and 24 h infection, the lung tissue of the mice in control group was taken and placed in 5 mL saline, homogenized, and dotted on a plate with gradient dilution.
The specific administration of mice was as follows: • (1) 2 h after infection: At the end of 2 h after infection, the lung tissue of the mice in the first cage was taken and placed in 5 mL saline, homogenized, and dotted on a plate with gradient dilution, two duplications for each mouse. The amount of bacteria loaded in the lung tissue of the mouse was counted. Mice in the third and fourth cages were injected respectively with 30 mpk and 10 mpk compound Plazomicin subcutaneously, mice in the fifth and sixth cages were injected respectively with 30 mpk and 10 mpk compound subcutaneously, and mice in the seventh cage were injected with 100 mpk meropenem subcutaneously. • (2) 10 h after infection: Mice in the third and fourth cages were injected respectively with 30 mpk and 10 mpk plazomicin subcutaneously, mice in the fifth and sixth cages were injected respectively with 30 mpk and 10 mpk compound 1 subcutaneously, and mice in the seventh cage were injected with 100 mpk meropenem subcutaneously. At the end of 24 h infection, the lung tissue of the mice in the second to seventh cages was taken and placed in 5 mL saline, homogenized, and dotted on a plate with gradient dilution, two duplications for each mouse. The amount of bacteria carried in the lung tissue of the mouse was counted, and the experimental results were summarized and shown in FIG. 2.

[4] = 43 hours incubation plus 3 hours Alma Blue, read-out: CC50 of HK-2 cell
[5] = predicted from toxicity regression curve, read-out: CC50 of compound on cells predicted by software (Prism)
[6] = position 10 (% from the apical turn)
[7] = position 20 (% from the apical turn)
[8] = position 30 (% from the apical turn)
[9] = position 40 (% from the apical turn)
[10] = position 50 (% from the apical turn)
[11] = position 60 (% from the apical turn)
[12] = position 70 (% from the apical turn)
[13] = position 80 (% from the apical turn)
[14] = position 90 (% from the apical turn)
[15] = position 100 (% from the apical turn)
[16] = guinea pig, in vivo, sc, 100 mg/kg
[17] = guinea pig, in vivo, sc, 100 mg/kg, 29 day

Q: For `CCN[C@@H]1C[C@H](N)[C@@H](O[C@H]2OC(CN)=CC[C@H]2N)[C@H](O)[C@H]1O[C@H]1OC[C@](C)(O)[C@H](NC)[C@H]1O` [Netilmicin], which Maximum inhibition rate (HK-2 cells) is on record?
A: 48.73%

Q: What about the CC50 at 43 h [1, 4] of the same compound?
A: 10.6 mg/mL

Q: What about the CC50 at 43 h [1, 5] of the same compound?
A: 10.6 mg/mL (≈ 22.4 mM)

Q: For `NCC[C@H](O)C(=O)N[C@@H]1C[C@H](N)[C@@H](O[C@H]2O[C@H](CN)[C@@H](O)[C@H](O)[C@H]2O)[C@H](O)[C@H]1O[C@H]1O[C@H](CO)[C@@H](O)[C@H](N)[C@H]1O` [Amikacin], which Maximum inhibition rate (HK-2 cells) is on record?
A: 68.40%

Q: What about the CC50 at 43 h [1, 4] of the same compound?
A: 8.16 mg/mL

Q: What about the CC50 at 43 h [1, 5] of the same compound?
A: 8.16 mg/mL (≈ 13.9 mM)

Q: Which results are given for Gentamicin?
A: CAP amplitude at 16 kHz ([2]; guinea pigs, 100 mg/kg subcutaneous 14 days, 29th day, 16 kHz, 90 dB): 373.329±15.332 uv; CAP amplitude at 32 kHz ([2]; guinea pigs, 100 mg/kg subcutaneous 14 days, 29th day, 32 kHz, 90 dB): 31.272±5.137 uv; CAP amplitude under click ([2]; guinea pigs, 100 mg/kg subcutaneous 14 days, 29th day, click): consistent with the Control group; hearing damage (CAP amplitude) at 32 kHz ([2]; guinea pigs, 100 mg/kg subcutaneous for 14 consecutive days, 29th day, 32 kHz): 74.3%; loss of outer hair cells (cochlear hair cells; medium and high frequency region (60-100% from the apical turn)): 12-67.7%; loss of inner hair cells (cochlear hair cells; near the end of the basal turn (100% from the apical turn)): 9.3±4.1%; Damage of inner hair cells on Day 29 (cochlear hair cells; [6]): 0%; Damage of outer ear hair cells on Day 29 (cochlear hair cells; [6]): 9.5 ± 2.9%; Damage of inner hair cells on Day 29 (cochlear hair cells; [7]): 0%; Damage of outer ear hair cells on Day 29 (cochlear hair cells; [7]): 4.1 ± 0.7%; Damage of inner hair cells on Day 29 (cochlear hair cells; [8]): 0%; Damage of outer ear hair cells on Day 29 (cochlear hair cells; [8]): 2.7 ± 0.7%; Damage of inner hair cells on Day 29 (cochlear hair cells; [9]): 0%; Damage of outer ear hair cells on Day 29 (cochlear hair cells; [9]): 3.2 ± 1.0%; Damage of inner hair cells on Day 29 (cochlear hair cells; [10]): 0%; Damage of outer ear hair cells on Day 29 (cochlear hair cells; [10]): 3.2 ± 1.5%; Damage of inner hair cells on Day 29 (cochlear hair cells; [11]): 0.4 ± 0.4%; Damage of outer ear hair cells on Day 29 (cochlear hair cells; [11]): 12.6 ± 5.6%; Damage of inner hair cells on Day 29 (cochlear hair cells; [12]): 0.6 ± 0.6%; Damage of outer ear hair cells on Day 29 (cochlear hair cells; [12]): 13.6 ± 6.1%; Damage of inner hair cells on Day 29 (cochlear hair cells; [13]): 0.2 ± 0.2%; Damage of outer ear hair cells on Day 29 (cochlear hair cells; [13]): 12.0 ± 5.4%; Damage of inner hair cells on Day 29 (cochlear hair cells; [14]): 2.5 ± 1.7%; Damage of outer ear hair cells on Day 29 (cochlear hair cells; [14]): 42.8 ± 8.2%; Damage of inner hair cells on Day 29 (cochlear hair cells; [15]): 9.3 ± 4.1%; Damage of outer ear hair cells on Day 29 (cochlear hair cells; [15]): 67.7 ± 9.8%; Density of spiral ganglion neurons on Day 29 (spiral ganglion neurons; Turn 1 (basal turn)): 4.407 ± 0.517 n/10000 μm^2; Density of spiral ganglion neurons on Day 29 (spiral ganglion neurons; Turn 2): 5.540 ± 0.757 n/10000 μm^2; Density of spiral ganglion neurons on Day 29 (spiral ganglion neurons; Turn 3): 4.604 ± 0.598 n/10000 μm^2; Density of spiral ganglion neurons on Day 29 (spiral ganglion neurons; Turn 4 (apical turn)): 5.259 ± 0.280 n/10000 μm^2; damage to spiral ganglion neurons (SGN density vs Control group) (spiral ganglion neurons; guinea pigs, 100 mg/kg subcutaneous 14 days, FIG. 7): obvious damage in each turn

Q: With `CN[C@@H]1[C@@H](O)[C@@H](O[C@@H]2[C@@H](O)[C@H](O[C@H]3OC(CNCCO)=CC[C@H]3N)[C@@H](N)C[C@H]2NC(=O)[C@@H](O)CCN)OC[C@]1(C)O` [Plazomicin] as the compound, how does the “CAP amplitude under click” value [2, 16] read?
A: caused hearing damage

Q: What about the “CAP amplitude at 16 kHz” value [2, 17] of the same compound?
A: 282.058±22.569 uv

Q: And the “CAP amplitude at 32 kHz” value [2, 17]?
A: 62.982±7.561 uv

Q: What about the “hearing damage (CAP amplitude) at 16 kHz” value [2, 17] of the same compound?
A: 25.9%

Q: What about the “hearing damage (CAP amplitude) at 32 kHz” value [2, 17] of the same compound?
A: 48.2%

Q: What about the “loss of inner hair cells” value (cochlear hair cells; guinea pig, in vivo, 29 day) of the same compound?
A: 3.5±3.0%

Q: And the “toxicity to HK-2 cells compared with Netilmicin and Amikacin” value (HK-2 cells)?
A: significantly lower than that of Netilmicin and Amikacin

Q: What about the Maximum inhibition rate (HK-2 cells) of the same compound?
A: 35.98%

Q: And the CC50 at 43 h [1, 4]?
A: > 10 mg/mL

Q: What about the CC50 at 43 h [1, 5] of the same compound?
A: 19.5 mg/mL (≈ 33 mM)

Q: And the “damage to spiral ganglion neurons (SGN density vs Control group)” value (spiral ganglion neurons; [16])?
A: decrease in SGN density near the apical turn

Q: What about the “in vivo activity in lung infection model (bacteria in lung tissue)” value [3] of the same compound?
A: good in vivo activity
